The numbers were not newly measured in US7419996B2, “Parenteral and oral formulations of benzimidazoles” (The University of Houston, priority 2003, dated 2008), which cites them from elsewhere.

Like-named read-outs stand apart in the source and are kept apart here.

The test system of the data set is rodents.

`C[S+](C)[O-]` [DMSO, dimethylsulfoxide]: the LD50 by setting is: (intravenously) 3.1 gm/kg; (orally) 7.92 gm/kg.
